One molecule from PMC3823594, “Conformational Changes Underlying Pore Dilation in the Cytoplasmic Domain of Mammalian Inward Rectifier K^+ Channels” (PLoS ONE, 2013) can be followed below.

This assay deals with Kir3.2 E236R. Nature of the assay: Two-electrode voltage clamp, ACh-dependent (m2R-dependent) K+ current activation. It counts as cell-based, mouse. As to conditions: Kir3.2 E236R with m2R in Xenopus oocytes; various concentrations of ACh; end of test pulse to −120 mV. The text has this: The mouse Kir3.2d isoform was subjected to functional analyses. The amino acid numbers correspond to the longest mouse Kir3.2 isoform. Point mutations were introduced using the QuikChange site-directed mutagenesis kit (Stratagene, La Jolla, CA), and the presence of the mutations was confirmed by direct DNA sequencing. The care of Xenopus laevis was in accordance with the guideline of the Institute of Experimental Animal Sciences, Osaka University. The protocol was approved by the Animal Experiment Committee of Osaka University. The frogs were deeply anesthetized by immersing in 0.2% tricaine methanesulfonate for 20 min at 18°C. […] The currents were recorded in the absence or presence of various concentrations of acetylcholine (ACh). […] The data are expressed as mean values ± standard error of the mean. For the quantitative estimation of ACh-dependent current responses of the wild-type (WT) and mutant channels, the current amplitudes at the end of test pulses at each ACh concentration ([ACh]) were fitted using the following equation: […]
Figure 6 Introduction of reverse charge at position 236 of Kir3.2. […] Typical current traces of the E236R mutant recorded in the presence of various concentrations of ACh are shown. […] The current amplitudes at the end of the test pulse were normalized to that recorded at -100 mV. […]

For `CC(=O)OCC[N+](C)(C)C` [ACh, acetylcholine], the “Sensitivity of whole-cell K+ current to m2R-stimulation” value was “insensitive”.
